The subject of one experiment is MDA-MB-231. Description: Antiproliferative activity against human MDA-MB-231 cells harboring wild type BRCA and c-Met amplification assessed as inhibition of cell growth incubated for 7 days by MTT assay. The experiment is classed as functional, cell-based. To be noted: MDA-MB-231, 168 h. (In general: Formazan colour is commonly taken as a measure of viable cells.)

Experiment [1] deals with Poly [ADP-ribose] polymerase 1 (Homo sapiens, UniProt P09874). Description: Inhibition of PARP1 (unknown origin) using histone as substrate incubated for 45 mins by absorbance based analysis.
Poly [ADP-ribose] polymerase 1, sequence (P09874 whole entry): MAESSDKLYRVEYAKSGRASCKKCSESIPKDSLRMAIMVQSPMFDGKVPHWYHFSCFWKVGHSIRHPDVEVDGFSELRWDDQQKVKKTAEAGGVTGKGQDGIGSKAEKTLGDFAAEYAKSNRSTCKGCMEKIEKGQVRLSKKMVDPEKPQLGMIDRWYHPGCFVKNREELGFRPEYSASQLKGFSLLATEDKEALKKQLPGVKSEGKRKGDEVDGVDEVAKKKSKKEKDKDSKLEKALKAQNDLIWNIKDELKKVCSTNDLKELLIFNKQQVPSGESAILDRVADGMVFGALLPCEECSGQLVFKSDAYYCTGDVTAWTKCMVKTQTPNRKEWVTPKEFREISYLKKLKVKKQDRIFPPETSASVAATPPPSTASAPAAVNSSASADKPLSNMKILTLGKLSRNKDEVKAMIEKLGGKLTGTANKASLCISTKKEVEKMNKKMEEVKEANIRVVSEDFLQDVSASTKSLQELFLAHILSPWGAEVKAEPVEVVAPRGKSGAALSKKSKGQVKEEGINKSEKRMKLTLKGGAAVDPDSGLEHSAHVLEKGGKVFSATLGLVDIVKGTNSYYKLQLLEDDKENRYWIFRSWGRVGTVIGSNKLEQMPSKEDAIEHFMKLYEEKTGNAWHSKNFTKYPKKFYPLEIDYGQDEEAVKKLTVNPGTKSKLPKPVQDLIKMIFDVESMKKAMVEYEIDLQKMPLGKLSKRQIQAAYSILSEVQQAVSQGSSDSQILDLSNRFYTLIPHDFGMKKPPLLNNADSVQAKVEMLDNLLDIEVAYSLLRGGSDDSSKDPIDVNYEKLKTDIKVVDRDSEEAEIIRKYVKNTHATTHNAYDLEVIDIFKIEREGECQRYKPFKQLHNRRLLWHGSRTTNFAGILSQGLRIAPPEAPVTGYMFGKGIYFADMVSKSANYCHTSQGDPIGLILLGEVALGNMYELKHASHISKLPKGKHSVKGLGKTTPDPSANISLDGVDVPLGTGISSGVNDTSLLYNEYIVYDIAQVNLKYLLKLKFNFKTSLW
Experiment [2] has as its target T1, Hepatocyte growth factor receptor (Homo sapiens, UniProt P08581). Kind of experiment: Inhibition of c-Met (unknown origin) by HTRF method.
The target of experiment [3] is T1, Hepatocyte growth factor receptor. Kind of experiment: Inhibition of c-Met (unknown origin) at 100 nM by HTRF method relative to control.

SMILES strings stand for the structures.

T1 sequence (P08581 whole entry): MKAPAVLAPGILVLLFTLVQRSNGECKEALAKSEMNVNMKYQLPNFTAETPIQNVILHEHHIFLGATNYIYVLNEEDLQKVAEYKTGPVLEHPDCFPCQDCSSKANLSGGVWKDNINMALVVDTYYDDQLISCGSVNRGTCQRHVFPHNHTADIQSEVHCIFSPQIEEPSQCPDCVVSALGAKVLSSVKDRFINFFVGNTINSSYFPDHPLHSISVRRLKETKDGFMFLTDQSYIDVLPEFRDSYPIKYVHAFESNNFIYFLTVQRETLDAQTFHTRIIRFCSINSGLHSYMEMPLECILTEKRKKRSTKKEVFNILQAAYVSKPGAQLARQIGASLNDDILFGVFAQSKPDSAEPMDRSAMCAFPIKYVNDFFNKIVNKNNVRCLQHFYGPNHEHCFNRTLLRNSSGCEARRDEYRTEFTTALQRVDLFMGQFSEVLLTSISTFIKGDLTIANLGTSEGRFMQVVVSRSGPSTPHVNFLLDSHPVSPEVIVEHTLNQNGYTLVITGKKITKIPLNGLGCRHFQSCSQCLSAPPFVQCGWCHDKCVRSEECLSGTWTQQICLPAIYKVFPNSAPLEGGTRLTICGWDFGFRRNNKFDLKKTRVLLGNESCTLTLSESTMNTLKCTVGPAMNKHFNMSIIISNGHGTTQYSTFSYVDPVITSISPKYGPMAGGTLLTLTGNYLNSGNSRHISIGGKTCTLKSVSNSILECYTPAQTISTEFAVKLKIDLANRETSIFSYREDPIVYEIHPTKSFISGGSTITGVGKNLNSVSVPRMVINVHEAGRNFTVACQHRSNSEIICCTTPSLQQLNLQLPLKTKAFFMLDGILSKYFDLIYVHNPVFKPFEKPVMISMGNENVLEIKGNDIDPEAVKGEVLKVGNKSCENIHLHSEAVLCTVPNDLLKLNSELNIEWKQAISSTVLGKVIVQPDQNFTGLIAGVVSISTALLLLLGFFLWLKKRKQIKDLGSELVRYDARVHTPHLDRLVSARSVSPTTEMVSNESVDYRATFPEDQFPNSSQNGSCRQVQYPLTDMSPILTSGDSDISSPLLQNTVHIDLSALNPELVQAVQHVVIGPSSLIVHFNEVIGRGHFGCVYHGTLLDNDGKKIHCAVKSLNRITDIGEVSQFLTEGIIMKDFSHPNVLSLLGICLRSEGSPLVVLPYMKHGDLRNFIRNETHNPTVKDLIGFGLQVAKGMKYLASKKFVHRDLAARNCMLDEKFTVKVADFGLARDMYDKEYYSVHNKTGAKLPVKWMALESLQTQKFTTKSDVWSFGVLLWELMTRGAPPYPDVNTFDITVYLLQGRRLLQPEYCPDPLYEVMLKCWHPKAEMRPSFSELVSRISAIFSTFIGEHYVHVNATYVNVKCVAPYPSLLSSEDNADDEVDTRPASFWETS

In the case of `Cn1cc(-c2ccc(=O)n(CCOc3ccnc4cc(N5CCN(C(=O)c6cc(Cc7n[nH]c(=O)c8ccccc78)ccc6F)CC5)ccc34)n2)cn1`, the IC50 with MDA-MB-231 was found to be 230 nM; in experiment [1], 0.12 nM; in experiment [2], 30 nM.

Consider `O=C(c1cc(Cc2n[nH]c(=O)c3ccccc23)ccc1F)N1CCN(c2ccc3c(OCCn4ncccc4=O)ccnc3c2)CC1`, for which, in experiment [1], half-maximal inhibition (IC50) was put at 0.9 nM. Further, the inhibition in experiment [3] is less than 50%.

On to `O=C(c1cc(Cc2n[nH]c(=O)c3ccccc23)ccc1F)N1CCN(c2ccc3c(OCCn4nc(-c5ccccc5)ccc4=O)ccnc3c2)CC1`, for which the figures for the half-inhibitory concentration (IC50) (in the experiment on MDA-MB-231; in experiment [1]; in experiment [2]) were 1730 nM, 1.1 nM and 37.7 nM, respectively.

As for `Cn1cc(-c2ccc(=O)n(CCOc3ccnc4cc(NC5CCN(C(=O)c6cc(Cc7n[nH]c(=O)c8ccccc78)ccc6F)C5)ccc34)n2)cn1` (configuration not stated), the values for the IC50 in experiment [1] and in experiment [2] were 5.8 nM and 42.6 nM, respectively.

Take `CC1CN(c2ccc3c(OCCn4nc(-c5cnn(C)c5)ccc4=O)ccnc3c2)CCN1C(=O)c1cc(Cc2n[nH]c(=O)c3ccccc23)ccc1F` (racemic): the half-inhibitory concentration (IC50) in the experiment with MDA-MB-231 is 5540 nM; in experiment [1] it was 1.1 nM; in experiment [2], 29 nM.

For `O=C(c1cc(Cc2n[nH]c(=O)c3ccccc23)ccc1F)N1CCN(c2ccc3c(OCCn4nc(-c5ccc(C(F)(F)F)cc5)ccc4=O)ccnc3c2)CC1`, the IC50 in experiment [1] amounted to 7.3 nM. In experiment [3], this compound showed an inhibition of less than 50%.

The compound `Cn1cc(-c2ccc(=O)n(CCOc3ccnc4cc(N5CCN(C(=O)c6cc(Cc7n[nH]c(=O)c8ccccc78)ccc6F)C(C)(C)C5)ccc34)n2)cn1` came in with an IC50 in experiment [1] of more than 1000 nM. In experiment [3], this compound displayed an inhibition of less than 50%.

For `Cn1cc(-c2ccc(=O)n(CCOc3ccnc4cc(N5CCC(NC(=O)c6cc(Cc7n[nH]c(=O)c8ccccc78)ccc6F)CC5)ccc34)n2)cn1`, the IC50 in experiment [1] amounted to 42 nM; in experiment [2], 64.2 nM.

With `Cn1cc(-c2ccc(=O)n(CCOc3ccnc4cc(NCCN5CCN(C(=O)c6cc(Cc7n[nH]c(=O)c8ccccc78)ccc6F)CC5)ccc34)n2)cn1`, the IC50 in experiment [1] turned out to be 32.2 nM. Moreover, in experiment [3], the inhibition is less than 50%.

With `Cn1cc(-c2ccc(=O)n(CCOc3ccnc4cc(OC5CCN(C(=O)c6cc(Cc7n[nH]c(=O)c8ccccc78)ccc6F)CC5)ccc34)n2)cn1`, the IC50 in experiment [1] is 2.1 nM. For the same compound, in experiment [3], the inhibition is less than 50%.

Consider `O=C(c1cc(Cc2n[nH]c(=O)c3ccccc23)ccc1F)N1CCN(c2ccc3c(OCCn4nc(N5CCOCC5)ccc4=O)ccnc3c2)CC1`, for which the results for the IC50 in experiment [1] and in experiment [2] were 7.1 nM and 51.2 nM, respectively.

As for `Cn1cc(-c2ccc(=O)n(CCOc3ccnc4cc(OCCN5CCN(C(=O)c6cc(Cc7n[nH]c(=O)c8ccccc78)ccc6F)CC5)ccc34)n2)cn1`, the concentration for half-maximal inhibition (IC50) in the experiment with MDA-MB-231 was found to be 1020 nM; in experiment [1], 3.7 nM; in experiment [2] it was 18.2 nM.

For `Cn1cc(-c2ccc(=O)n(CCOc3ccnc4cc(NC5CCN(C(=O)c6cc(Cc7n[nH]c(=O)c8ccccc78)ccc6F)CC5)ccc34)n2)cn1`, the IC50 came to 4.7 nM in experiment [1] and 126 nM in experiment [2].

Regarding `Cn1cc(-c2ccc(=O)n(CCOc3ccnc4cc(N5CCC(NC(=O)c6cc(Cc7n[nH]c(=O)c8ccccc78)ccc6F)C5)ccc34)n2)cn1` (configuration not stated), the values for the IC50 in experiment [1] and in experiment [2] were 91.7 nM and 33.1 nM, respectively.

By IC50 is commonly meant the concentration at which inhibition is half-maximal. As usually defined, the inhibition is the percentage by which the read-out fell short of the control.

Values taken from ChEMBL document CHEMBL5518224, “Rational Design of PARP1/c-Met Dual Inhibitors for Overcoming PARP1 Inhibitor Resistance Induced by c-Met Overexpression” (J Med Chem, 2024).
